Where a SMILES comes first, the peptide text is derived from it. Bridges are numbered along the chain shown (N, C = ends). [ ]: non-standard residue; d: D form. The star is where a group is joined. ξ: configuration not given here. Phe(4-CONH2) = NC(=O)c1ccc(C[C@H](N)C(=O)O)cc1; Phe(4-COOH) = N[C@@H](Cc1ccc(C(=O)O)cc1)C(=O)O; Bip = N[C@@H](Cc1ccc(-c2ccccc2)cc1)C(=O)O; NH(CH2)14COOH = O=C(O)CCCCCCCCCCCCCCN*; Phe(3-Me) = Cc1cccc(C[C@H](N)C(=O)O)c1; Phe(4-F) = N[C@@H](Cc1ccc(F)cc1)C(=O)O; Val(3-OH) = CC(C)(O)[C@H](N)C(=O)O; 4Pal = N[C@@H](Cc1ccncc1)C(=O)O; Cha = N[C@@H](CC1CCCCC1)C(=O)O; Ile(3ξ) = CCC(C)[C@H](N)C(=O)O; Thr(3ξ) = CC(O)[C@H](N)C(=O)O; Carboxymethyl = O=C(O)C*; NMeA = CN[C@@H](C)C(=O)O; Aun = NCCCCCCCCCCC(=O)O; Dab = NCC[C@H](N)C(=O)O; AEEA = NCCOCCOCC(=O)O

For this assay, the target named is T1, PD-1/PD-L1 interaction (PE-labeled human PD-L1-Ig binding to Jurkat cell line over-expressing human PD-1) (Homo sapiens, UniProt Q15116).
T1 construct: expressed in transfected cells; host or cells: Jurkat
T1 sequence (Q15116 25-288): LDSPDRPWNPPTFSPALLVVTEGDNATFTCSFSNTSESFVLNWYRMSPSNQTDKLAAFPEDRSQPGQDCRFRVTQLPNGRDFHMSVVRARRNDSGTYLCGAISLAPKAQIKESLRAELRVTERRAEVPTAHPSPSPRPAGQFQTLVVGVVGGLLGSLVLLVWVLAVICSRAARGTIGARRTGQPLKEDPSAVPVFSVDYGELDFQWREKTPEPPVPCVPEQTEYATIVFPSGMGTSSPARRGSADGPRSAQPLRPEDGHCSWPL
Put plainly: Jurkat-PD-1 Cell Binding High-Content Screening Assay (CBA). The following applies: PE-labeled PD-L1-Ig 20 nM final, Jurkat-hPD-1 cells; read-out: Jurkat HPD1 PDL1 IC50. The method in brief: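 Compound is added first to the PD-1-expressing Jurkat cells and held 2 h at 37 °C in serum-containing DMEM. The fluorescent PD-L1 fusion follows at 20 nM final for 1 h. Fixed, Hoechst-stained cells are then imaged for bound label.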
Usually IC50 stands for the concentration that gives 50% inhibition. On to `CCC(C)[C@@H]1NC(=O)[C@H](Cc2ccc(-c3ccccc3)cc2)NC(=O)[C@H](C(C)C)NC(=O)[C@H](Cc2c[nH]c3ccccc23)NC(=O)[C@H](CC(=O)O)NC(=O)[C@H](Cc2ccc(C(=O)O)cc2)NC(=O)[C@H](Cc2cnc[nH]2)NC(=O)CSC[C@@H](C(=O)N[C@@H](CCN)C(=O)NCCOCCOCC(=O)NCCCCCCCCCCC(=O)O)NC(=O)[C@H](C(C)O)NC(=O)[C@H](C(C)(C)O)NC(=O)[C@H](CC2CCCCC2)NC(=O)[C@H](CCN)NC(=O)[C@@H](CC(C)C)NC(=O)[C@H](C)N(C)C1=O` (stereo partly drawn) [Example 2530] ({CH2CO}-H[Phe(4-COOH)]DWV[Bip][Ile(3ξ)][NMeA][dL][Dab][Cha][Val(3-OH)][Thr(3ξ)]C[Dab][AEEA][Aun]-OH; thioether N-14), for which the IC50 was determined as 2.4 nM.
For the compound `CCC(C)[C@@H]1NC(=O)[C@H](Cc2ccc(-c3ccccc3)cc2)NC(=O)[C@H](C(C)C)NC(=O)[C@H](Cc2c[nH]c3ccccc23)NC(=O)[C@H](CC(=O)O)NC(=O)[C@H](Cc2ccc(C(=O)O)cc2)NC(=O)[C@H](Cc2cnc[nH]2)NC(=O)CSC[C@@H](C(=O)N[C@@H](CCN)C(=O)NCCOCCOCC(=O)NCCCCCCCCCCC(=O)O)NC(=O)[C@H](CCC(=O)O)NC(=O)[C@H](C(C)(C)O)NC(=O)[C@H](CC2CCCCC2)NC(=O)[C@H](CCN)NC(=O)[C@@H](CC(C)C)NC(=O)[C@H](C)N(C)C1=O` (stereo partly drawn) [Example 2531] ({CH2CO}-H[Phe(4-COOH)]DWV[Bip][Ile(3ξ)][NMeA][dL][Dab][Cha][Val(3-OH)]EC[Dab][AEEA][Aun]-OH; thioether N-14), the IC50 was found to be 1 nM.
The figure for `CC(=O)NCCCC[C@@H]1NC(=O)[C@H](C(C)(C)O)NC(=O)[C@H](CC2CCCCC2)NC(=O)[C@H](CCN)NC(=O)[C@@H](CC(C)C)NC(=O)[C@H](C)N(C)C(=O)[C@H](CCC(=O)O)NC(=O)[C@H](Cc2ccc(-c3ccccc3)cc2)NC(=O)[C@H](Cc2ccc(C(N)=O)cc2)NC(=O)[C@H](Cc2cccc(C)c2)NC(=O)[C@H](CC(=O)O)NC(=O)[C@H](Cc2ccc(OCC(=O)O)cc2)NC(=O)[C@H](Cc2ccc(OCC(=O)O)cc2)NC(=O)CSC[C@@H](C(=O)N[C@@H](CCN)C(=O)NCCOCCOCC(=O)NCCCCCCCCCCC(=O)O)NC1=O` [Example 2532] ({CH2CO}-Y(Carboxymethyl)Y(Carboxymethyl)D[Phe(3-Me)][Phe(4-CONH2)][Bip]E[NMeA][dL][Dab][Cha][Val(3-OH)]K(Ac)C[Dab][AEEA][Aun]-OH; thioether N-14) is 1.4 nM; for `CC(=O)NCCCC[C@@H]1NC(=O)[C@H](C(C)(C)O)NC(=O)[C@H](CC2CCCCC2)NC(=O)[C@H](CCN)NC(=O)[C@@H](CC(C)C)NC(=O)[C@H](C)N(C)C(=O)[C@H](CCC(=O)O)NC(=O)[C@H](Cc2ccc(-c3ccccc3)cc2)NC(=O)[C@H](Cc2ccc(C(N)=O)cc2)NC(=O)[C@H](Cc2cccc(C)c2)NC(=O)[C@H](CC(=O)O)NC(=O)[C@H](Cc2ccc(C(=O)O)cc2)NC(=O)[C@H](Cc2ccc(OCC(=O)O)cc2)NC(=O)CSC[C@@H](C(=O)N[C@@H](CCN)C(=O)NCCOCCOCC(=O)NCCOCCOCC(=O)NCCCCCCCCCCC(=O)O)NC1=O` [Example 2533] ({CH2CO}-Y(Carboxymethyl)[Phe(4-COOH)]D[Phe(3-Me)][Phe(4-CONH2)][Bip]E[NMeA][dL][Dab][Cha][Val(3-OH)]K(Ac)C[Dab][AEEA][AEEA][Aun]-OH; thioether N-14) it is 2.3 nM; for `CC(=O)NCCCC[C@@H]1NC(=O)[C@H](C(C)O)NC(=O)[C@H](CC2CCCCC2)NC(=O)[C@H](CCN)NC(=O)[C@@H](CC(C)C)NC(=O)[C@H](C)N(C)C(=O)[C@H](CCC(=O)O)NC(=O)[C@H](Cc2ccc(-c3ccccc3)cc2)NC(=O)[C@H](Cc2ccc(C(N)=O)cc2)NC(=O)[C@H](Cc2cccc(C)c2)NC(=O)[C@H](CC(=O)O)NC(=O)[C@H](Cc2ccc(C(=O)O)cc2)NC(=O)[C@H](Cc2ccc(OCC(=O)O)cc2)NC(=O)CSC[C@@H](C(=O)N[C@@H](CCN)C(=O)NCCOCCOCC(=O)NCCCCCCCCCCC(=O)O)NC1=O` (stereo partly drawn) [Example 2534] ({CH2CO}-Y(Carboxymethyl)[Phe(4-COOH)]D[Phe(3-Me)][Phe(4-CONH2)][Bip]E[NMeA][dL][Dab][Cha][Thr(3ξ)]K(Ac)C[Dab][AEEA][Aun]-OH; thioether N-14) it is 1.7 nM.
With `Cc1cccc(C[C@@H]2NC(=O)[C@H](CC(=O)O)NC(=O)[C@H](Cc3ccc(C(=O)O)cc3)NC(=O)[C@H](Cc3ccncc3)NC(=O)CSC[C@@H](C(=O)N[C@@H](CCN)C(=O)NCCOCCOCC(=O)NCCOCCOCC(=O)NCCCCCCCCCCC(=O)O)NC(=O)[C@H](CCC(=O)O)NC(=O)[C@H](C(C)C)NC(=O)[C@H](CC3CCCCC3)NC(=O)[C@H](CCN)NC(=O)[C@@H](CC(C)C)NC(=O)[C@H](C)N(C)C(=O)[C@H](CCC(=O)O)NC(=O)[C@H](Cc3ccc(-c4ccccc4)cc3)NC(=O)[C@H](Cc3ccc(C(N)=O)cc3)NC2=O)c1` [Example 2536] ({CH2CO}-[4Pal][Phe(4-COOH)]D[Phe(3-Me)][Phe(4-CONH2)][Bip]E[NMeA][dL][Dab][Cha]VEC[Dab][AEEA][AEEA][Aun]-OH; thioether N-14) the figure was 435 nM; with `Cc1cccc(C[C@@H]2NC(=O)[C@H](CC(=O)O)NC(=O)[C@H](Cc3ccc(OCC(=O)O)cc3)NC(=O)[C@H](C(C)O)NC(=O)CSC[C@@H](C(=O)N[C@@H](CCN)C(=O)NCCOCCOCC(=O)NCCOCCOCC(=O)NCCCCCCCCCCC(=O)O)NC(=O)[C@H](CCC(=O)O)NC(=O)[C@H](C(C)(C)O)NC(=O)[C@H](CC3CCCCC3)NC(=O)[C@H](CCN)NC(=O)[C@@H](CC(C)C)NC(=O)[C@H](C)N(C)C(=O)[C@H](Cc3ccc(C(=O)O)cc3)NC(=O)[C@H](Cc3ccc(-c4ccccc4)cc3)NC(=O)[C@H](Cc3ccc(C(=O)O)cc3)NC2=O)c1` (stereo partly drawn) [Example 2537] ({CH2CO}-[Thr(3ξ)]Y(Carboxymethyl)D[Phe(3-Me)][Phe(4-COOH)][Bip][Phe(4-COOH)][NMeA][dL][Dab][Cha][Val(3-OH)]EC[Dab][AEEA][AEEA][Aun]-OH; thioether N-14), 17.1 nM.
With `Cc1cccc(C[C@@H]2NC(=O)[C@H](CC(=O)O)NC(=O)[C@H](Cc3ccc(C(=O)O)cc3)NC(=O)[C@H](C(C)O)NC(=O)CSC[C@@H](C(=O)N[C@@H](CCN)C(=O)NCCOCCOCC(=O)NCCOCCOCC(=O)NCCCCCCCCCCC(=O)O)NC(=O)[C@H](CCC(=O)O)NC(=O)[C@H](C(C)C)NC(=O)[C@H](CC3CCCCC3)NC(=O)[C@H](CCN)NC(=O)[C@@H](CC(C)C)NC(=O)[C@H](C)N(C)C(=O)[C@H](Cc3ccc(C(=O)O)cc3)NC(=O)[C@H](Cc3ccc(-c4ccccc4)cc3)NC(=O)[C@H](Cc3ccc(C(=O)O)cc3)NC2=O)c1` (stereo partly drawn) [Example 2538] ({CH2CO}-[Thr(3ξ)][Phe(4-COOH)]D[Phe(3-Me)][Phe(4-COOH)][Bip][Phe(4-COOH)][NMeA][dL][Dab][Cha]VEC[Dab][AEEA][AEEA][Aun]-OH; thioether N-14) the figure was 12.4 nM; with `Cc1cccc(C[C@@H]2NC(=O)[C@H](CC(=O)O)NC(=O)[C@H](Cc3ccc(C(=O)O)cc3)NC(=O)[C@H](C(C)O)NC(=O)CSC[C@@H](C(=O)N[C@@H](CCN)C(=O)NCCOCCOCC(=O)NCCOCCOCC(=O)NCCOCCOCC(=O)NCCCCCCCCCCCCCCC(=O)O)NC(=O)[C@H](CCC(=O)O)NC(=O)[C@H](C(C)C)NC(=O)[C@H](CC3CCCCC3)NC(=O)[C@H](CCN)NC(=O)[C@@H](CC(C)C)NC(=O)[C@H](C)N(C)C(=O)[C@H](Cc3ccc(C(=O)O)cc3)NC(=O)[C@H](Cc3ccc(-c4ccccc4)cc3)NC(=O)[C@H](Cc3ccc(C(=O)O)cc3)NC2=O)c1` (stereo partly drawn) [Example 2539] ({CH2CO}-[Thr(3ξ)][Phe(4-COOH)]D[Phe(3-Me)][Phe(4-COOH)][Bip][Phe(4-COOH)][NMeA][dL][Dab][Cha]VEC[Dab][AEEA][AEEA][AEEA]-{NH(CH2)14COOH}; thioether N-14), 350 nM; with `Cc1cccc(C[C@@H]2NC(=O)[C@H](CC(=O)O)NC(=O)[C@H](Cc3ccc(C(=O)O)cc3)NC(=O)[C@H](Cc3ccncc3)NC(=O)CSC[C@@H](C(=O)N[C@@H](CCN)C(=O)NCCOCCOCC(=O)NCCCCCCCCCCC(=O)O)NC(=O)[C@H](C(C)O)NC(=O)[C@H](C(C)(C)O)NC(=O)[C@H](CC3CCCCC3)NC(=O)[C@H](CCN)NC(=O)[C@@H](CC(C)C)NC(=O)[C@H](C)N(C)C(=O)[C@H](CCC(=O)O)NC(=O)[C@H](Cc3ccc(-c4ccccc4)cc3)NC(=O)[C@H](Cc3ccc(C(N)=O)cc3)NC2=O)c1` (stereo partly drawn) [Example 2540] ({CH2CO}-[4Pal][Phe(4-COOH)]D[Phe(3-Me)][Phe(4-CONH2)][Bip]E[NMeA][dL][Dab][Cha][Val(3-OH)][Thr(3ξ)]C[Dab][AEEA][Aun]-OH; thioether N-14), 9 nM.
As for `Cc1cccc(C[C@@H]2NC(=O)[C@H](CC(=O)O)NC(=O)[C@H](Cc3ccc(C(=O)O)cc3)NC(=O)[C@H](Cc3ccc(F)cc3)NC(=O)CSC[C@@H](C(=O)N[C@@H](CCN)C(=O)NCCOCCOCC(=O)NCCOCCOCC(=O)NCCCCCCCCCCC(=O)O)NC(=O)[C@H](CCC(=O)O)NC(=O)[C@H](C(C)C)NC(=O)[C@H](CC3CCCCC3)NC(=O)[C@H](CCN)NC(=O)[C@@H](CC(C)C)NC(=O)[C@H](C)N(C)C(=O)[C@H](Cc3ccc(C(=O)O)cc3)NC(=O)[C@H](Cc3ccc(-c4ccccc4)cc3)NC(=O)[C@H](Cc3ccc(C(=O)O)cc3)NC2=O)c1` [Example 2542] ({CH2CO}-[Phe(4-F)][Phe(4-COOH)]D[Phe(3-Me)][Phe(4-COOH)][Bip][Phe(4-COOH)][NMeA][dL][Dab][Cha]VEC[Dab][AEEA][AEEA][Aun]-OH; thioether N-14), the IC50 was 2.4 nM.

The record behind these values is patent US20260070945A1, “MACROCYCLIC IMMUNOMODULATORS” (Bristol-Myers Squibb Company, priority 2022, published 2026).
